Results reported in patent publication US6841661B2, “Glycopeptide antibacterial compounds, compositions containing same and methods of using same” (Princeton Univerisity, priority 1999, dated 2005).
Values after ≈ are worked out from the molar mass of the structure shown. Where two headings read alike, the source gives them in different places.

Experiments:
[1] = system: E. faecium CL 5053 (VanA); experiment: microbe, parasite or virus in culture; assay type: cell-based; set-up: CL5053 (in vitro testing): unit not given here; conditions: for CL5053 (in vitro testing): Tables 7 and 8, unit not given; for MIC, CL5053: Table 9, E. faecium CL 5053 (VanA)
Description: (§1) National Committee for Clinical Laboratory Standards (NCCLS) guidelines [Methods for Dilution Antimicrobial Susceptibility Tests for Bacteria that Grow Aerobically-Fourth Edition; Approved Standard (NCCLS Document M7-A4, January 1997)] are used to establish the assay, although variations are made to optimize the published method according to the specific needs of the present investigation.
(§2) The test panel currently includes eight enterococci and 13 staphylococci, which are selected based upon their antibiotic susceptibility profiles. The methicillin-sensitive Staphylococcus aureus (MSSA) strain MB2985 (Smith isolate) is used to assesses the potential for serum protein binding of the compounds. The paired Gram-negative strains ASP #49 (envA-) and ASP #50 (envA+) (M. Salvatore/N. Lee) are included to judge membrane effects. Table 3 presents a detailed description of the strains included in the panel, including some of the sources of the strains of bacteria.
(§3) The glycopeptide antibiotic teicoplanin is included whenever possible.
(§4) TSB, containing 10% HS* for vancomycin intermediate S. aurcus/methicillin-resistant S. aureus (VISA/MRSA) strains, is inoculated from an appropriate source (frozen broth or agar slant) and grown approximately 17 hr at 35° C. with shaking at 220 rpm. Cultures are grown in tubes with a volume of 5 ml for enterococci and 2 ml for all other strains.
(§5) Four milliliter (4 ml) overnight culture is added to 36 ml physiological saline to obtain tenfold dilutions (enterococci). Overnight culture (0.4 ml) is added to 39.6 ml saline to obtain 100-fold dilutions (all strains except enterococci). Diluted cultures are maintained on ice until time of inoculation of test plates.
(§6) The number of CFU/mL is determined on BHI agar plates, although this is not done routinely because titers of overnight cultures are relatively constant. The test media include: • BHI for enterococci and VISA/MRSA; • MH II (i.e., cation-adjusted Mueller-Hinton broth) for MRS, MSS and E. coli.; • MH II+HSA for MSSA is prepared as follows: • a. 2×MHII+86mg/ml HSA • b. Dissolve 4.3 g HSA in 50 ml autoclaved 2x MH II. • c. pH to 7.0 by adding 2M MOPS, sodium. • d. Filter sterilize using 0.22 μm Coming cellulose acetate filter, used because of reported low protein binding. • e. 1×MH II+43 mg/ml HSA • f. Dilute the 2×medium twofold and filter as above. 5.8.6. Preparation of Test Plates
(§7) Using a Denley liquid handling system (or similar automatic device), 100 μ1×medium is added to each well in columns 2-12 of a 96-well microtiter dish. Using a multichannel pipettor, 100 μl 2×medium is added to each well in column 1. Plates may be filled on the day prior to assay, wrapped in plastic bags and refrigerated.
(§8) Vancomycin, Schering 29482, and teicoplanin are prepared on a weight per volume basis using 10 mM 3-(N-morpholino)propane-sulfonic acid (MOPS) buffer pH 7. Test compounds are received in solution in appropriate solvent (typically as 1 mg/ml in DMSO) or are dissolved in appropriate solvent prior to further dilution in 10 mM MOPS buffer, ph7. Consistent with NCCLS guidelines, antibiotics are handled aseptically but are not otherwise sterilized.
(§9) 100 μl appropriately diluted antibiotic solution is added to the first well of the designated row of the 96-well microtiter dish and serially diluted by twofold across the row using the Denley liquid handling system. With the aid of a Dynatech NEC 2000 inoculator, each well of the microtiter dish is inoculated with 1.5 μl diluted overnight culture, yielding approximately 1-5×10^6 CFU/ml for enterococci and approximately 3-7×10^5 CFU/ml for all other strains. Dishes are placed in stacks of no more than five, wrapped in plastic bags and incubated at 35° C. • Indication of result(s) type (% INH, IC50, Zone size, etc.) • MIC=minimum inhibitory concentration ps 5.8.9. Interpretation of the Results on the Basis of Activity […]

[2] = system: E. faecium CL 5242 (VanA); experiment: microbe, parasite or virus in culture; assay type: cell-based; set-up: CL5242 (in vitro testing): unit not given here; conditions: for CL5242 (in vitro testing): Tables 7 and 8, unit not given; for MIC, CL5242: Table 9, E. faecium CL 5242 (VanA)
Description: as §1, §2, §3, §4, §5, §6, §7, §8, §9

[3] = system: E. faecium CL 4931 (VanA); experiment: microbe, parasite or virus in culture; assay type: cell-based; set-up: CL4931 (in vitro testing): unit not given here; conditions: for CL4931 (in vitro testing): Tables 7 and 8, unit not given; for MIC, CL4931: Table 9, E. faecium CL 4931 (VanA)
Description: as §1, §2, §3, §4, §5, §6, §7, §8, §9

[4] = system: E. faecalis CL 4877 (VanB); experiment: microbe, parasite or virus in culture; assay type: cell-based; set-up: CL4877 (in vitro testing): unit not given here; conditions: for CL4877 (in vitro testing): Tables 7 and 8, unit not given; for MIC, CL4877: Table 9, E. faecalis CL 4877 (VanB)
Description: as §1, §2, §3, §4, §5, §6, §7, §8, §9

[5] = system: CL 4931, CL 5053, CL 5242 and CL 4877; assay type: cell-based, E. faecium, E. faecalis; set-up: unit not given here
Description: as §1, §2, §3, §4, §5, §6, §7, §8, §9

[6] = mean of CL4931, CL5053, CL5242, CL4877, unit not given
[7] = Table 9, mean MIC over CL4931, CL5053, CL5242, CL4877

Compound	CL5053 (in vitro testing) [1]	CL5242 (in vitro testing) [2]	CL4931 (in vitro testing) [3]	CL4877 (in vitro testing) [4]	Mean [5, 6]	MIC, CL5053 [1]	MIC, CL5242 [2]	MIC, CL4931 [3]	MIC, CL4877 [4]	Mean [5, 7]
CNC(CC(C)C)C(=O)NC1C(=O)NC(CC(N)=O)C(=O)NC2C(=O)NC3C(=O)NC(C(=O)NC(C(=O)O)c4cc(O)cc(O)c4-c4cc3ccc4O)C(O)c3ccc(c(Cl)c3)Oc3cc2cc(c3OC2OC(CNCc3ccco3)C(O)C(O)C2OC2CC(C)(NCc3ccc(OCc4ccc(Cl)c(Cl)c4)cc3)C(O)C(C)O2)Oc2ccc(cc2Cl)C1O (stereo not shown) [Compound 145]	8	1	8	0.5	4.4					
CNC(CC(C)C)C(=O)NC1C(=O)NC(CC(N)=O)C(=O)NC2C(=O)NC3C(=O)NC(C(=O)NC(C(=O)O)c4cc(O)cc(O)c4-c4cc3ccc4O)C(O)c3ccc(c(Cl)c3)Oc3cc2cc(c3OC2OC(CNCc3ccccc3)C(O)C(O)C2OC2CC(C)(NCc3ccc(-c4ccc(Cl)cc4)cc3)C(O)C(C)O2)Oc2ccc(cc2Cl)C1O (stereo not shown) [Compound 190]						8 µg/mL (≈ 4.6 µM)	2 µg/mL (≈ 1.15 µM)	8 µg/mL (≈ 4.6 µM)	4 µg/mL (≈ 2.3 µM)	5.5
CNC(CC(C)C)C(=O)NC1C(=O)NC(CC(N)=O)C(=O)NC2C(=O)NC3C(=O)NC(C(=O)NC(C(=O)O)c4cc(O)cc(O)c4-c4cc3ccc4O)C(O)c3ccc(c(Cl)c3)Oc3cc2cc(c3OC2OC(CN)C(O)C(O)C2OC2CC(C)(NCc3ccc(OCc4ccc(Cl)c(Cl)c4)cc3OC)C(O)C(C)O2)Oc2ccc(cc2Cl)C1O (stereo not shown) [Compound 185]	16	4	8	4	8					
CNC(CC(C)C)C(=O)NC1C(=O)NC(CC(N)=O)C(=O)NC2C(=O)NC3C(=O)NC(C(=O)NC(C(=O)O)c4cc(O)cc(O)c4-c4cc3ccc4O)C(O)c3ccc(c(Cl)c3)Oc3cc2cc(c3OC2OC(CNC(=O)Cc3ccccc3)C(O)C(O)C2OC2CC(C)(NCc3ccc(OCc4ccc(Cl)c(Cl)c4)cc3)C(O)C(C)O2)Oc2ccc(cc2Cl)C1O (stereo not shown) [Compound 151]	16	2	8	0.5	6.6					
C=Cc1ccccn1 [Compound 191, 2-pyridylethylene]						16 µg/mL (≈ 152 µM)	4 µg/mL (≈ 38 µM)	16 µg/mL (≈ 152 µM)	16 µg/mL (≈ 152 µM)	13.0
CNC(CC(C)C)C(=O)NC1C(=O)NC(CC(N)=O)C(=O)NC2C(=O)NC3C(=O)NC(C(=O)NC(C(=O)O)c4cc(O)cc(O)c4-c4cc3ccc4O)C(O)c3ccc(c(Cl)c3)Oc3cc2cc(c3OC2OC(CNCc3ccc(Cl)cc3)C(O)C(O)C2OC2CC(C)(NCc3ccc(OCc4ccc(Cl)c(Cl)c4)cc3)C(O)C(C)O2)Oc2ccc(cc2Cl)C1O (stereo not shown) [Compound 149]	8	2	8	0.25	4.6					
CNC(CC(C)C)C(=O)NC1C(=O)NC(CC(N)=O)C(=O)NC2C(=O)NC3C(=O)NC(C(=O)NC(C(=O)O)c4cc(O)cc(O)c4-c4cc3ccc4O)C(O)c3ccc(c(Cl)c3)Oc3cc2cc(c3OC2OC(CNCc3ccc(OC)cc3)C(O)C(O)C2OC2CC(C)(NCc3ccc(OCc4ccc(Cl)c(Cl)c4)cc3)C(O)C(C)O2)Oc2ccc(cc2Cl)C1O (stereo not shown) [Compound 138]	4	1	8	0.5	3.4					
CNC(CC(C)C)C(=O)NC1C(=O)NC(CC(N)=O)C(=O)NC2C(=O)NC3C(=O)NC(C(=O)NC(C(=O)O)c4cc(O)cc(O)c4-c4cc3ccc4O)C(O)c3ccc(c(Cl)c3)Oc3cc2cc(c3OC2OC(CN)C(O)C(O)C2OC2CC(C)(NCc3ccc(C(=O)Oc4ccc(Cl)c(Cl)c4)cc3)C(O)C(C)O2)Oc2ccc(cc2Cl)C1O (stereo not shown) [Compound 188]	16	4	8	16	11					
CNC(CC(C)C)C(=O)NC1C(=O)NC(CC(N)=O)C(=O)NC2C(=O)NC3C(=O)NC(C(=O)NC(C(=O)O)c4cc(O)cc(O)c4-c4cc3ccc4O)C(O)c3ccc(c(Cl)c3)Oc3cc2cc(c3OC2OC(CN)C(O)C(O)C2OC2CC(C)(NCc3ccc(OCc4cc(Cl)ccc4Cl)cc3)C(O)C(C)O2)Oc2ccc(cc2Cl)C1O (stereo not shown) [Compound 174]	16	8	16	16	14					
CNC(CC(C)C)C(=O)NC1C(=O)NC(CC(N)=O)C(=O)NC2C(=O)NC3C(=O)NC(C(=O)NC(C(=O)O)c4cc(O)cc(O)c4-c4cc3ccc4O)C(O)c3ccc(c(Cl)c3)Oc3cc2cc(c3OC2OC(CN3CCC(N(C)C)C3)C(O)C(O)C2OC2CC(C)(NCc3ccc(OCc4ccc(Cl)c(Cl)c4)cc3)C(O)C(C)O2)Oc2ccc(cc2Cl)C1O (stereo not shown) [Compound 166]	16	2	8	32	14.5					
CNC(CC(C)C)C(=O)NC1C(=O)NC(CC(N)=O)C(=O)NC2C(=O)NC3C(=O)NC(C(=O)NC(C(=O)O)c4cc(O)cc(O)c4-c4cc3ccc4O)C(O)c3ccc(c(Cl)c3)Oc3cc2cc(c3OC2OC(CNCC3CCCCO3)C(O)C(O)C2OC2CC(C)(NCc3ccc(OCc4ccc(Cl)c(Cl)c4)cc3)C(O)C(C)O2)Oc2ccc(cc2Cl)C1O (stereo not shown) [Compound 156]	16	2	16	4	9.5					
CNC(CC(C)C)C(=O)NC1C(=O)NC(CC(N)=O)C(=O)NC2C(=O)NC3C(=O)NC(C(=O)NC(C(=O)O)c4cc(O)cc(O)c4-c4cc3ccc4O)C(O)c3ccc(c(Cl)c3)Oc3cc2cc(c3OC2OC(CNCC3CCNCC3)C(O)C(O)C2OC2CC(C)(NCc3ccc(OCc4ccc(Cl)c(Cl)c4)cc3)C(O)C(C)O2)Oc2ccc(cc2Cl)C1O (stereo not shown) [Compound 155]	16	4	16	1	9.3					
CNC(CC(C)C)C(=O)NC1C(=O)NC(CC(N)=O)C(=O)NC2C(=O)NC3C(=O)NC(C(=O)NC(C(=O)O)c4cc(O)cc(O)c4-c4cc3ccc4O)C(O)c3ccc(c(Cl)c3)Oc3cc2cc(c3OC2OC(CNCC(C)C)C(O)C(O)C2OC2CC(C)(NCc3ccc(OCc4ccc(Cl)c(Cl)c4)cc3)C(O)C(C)O2)Oc2ccc(cc2Cl)C1O (stereo not shown) [Compound 159]	16	4	16	4	10.0					
CNC(CC(C)C)C(=O)NC1C(=O)NC(CC(N)=O)C(=O)NC2C(=O)NC3C(=O)NC(C(=O)NC(C(=O)O)c4cc(O)cc(O)c4-c4cc3ccc4O)C(O)c3ccc(c(Cl)c3)Oc3cc2cc(c3OC2OC(CN)C(O)C(O)C2OC2CC(C)(NCC(=O)Oc3ccc(-c4ccc(Cl)c(Cl)c4)cc3)C(O)C(C)O2)Oc2ccc(cc2Cl)C1O (stereo not shown) [Compound 189]	>32	32	32	32	32					
